Reference: PubChem BioAssay (NCI)
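Grown in 96-well plates, cells were treated for 48 hours with each compound at five concentrations. Insufficient inhibition: endpoint recorded as highest concentration tested. GI50 is the concentration that inhibits growth by half. TGI: total growth inhibition.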

What was measured:
Assay in all cases: growth of human tumour cells (NCI), 48 h
EKVX NSCLC = system: EKVX NSCLC
TK-10 renal = system: TK-10 renal
U251 CNS = system: U251 CNS
OVCAR-5 ovarian = system: OVCAR-5 ovarian
NCI-H23 lung = system: NCI-H23 lung
NCI-H460 lung = system: NCI-H460 lung
M14 melanoma = system: M14 melanoma
MOLT-4 leukemia = system: MOLT-4 leukemia
CCRF-CEM leukemia = system: CCRF-CEM leukemia
NCI/ADR-RES ovarian = system: NCI/ADR-RES ovarian
UACC-257 melanoma = system: UACC-257 melanoma
K-562 leukemia = system: K-562 leukemia
UO-31 renal = system: UO-31 renal
COLO 205 colon = system: COLO 205 colon
SK-MEL-28 melanoma = system: SK-MEL-28 melanoma
OVCAR-8 ovarian = system: OVCAR-8 ovarian
SK-MEL-5 melanoma = system: SK-MEL-5 melanoma
HCT-116 colon = system: HCT-116 colon
SF-268 CNS = system: SF-268 CNS
786-0 renal = system: 786-0 renal
MCF7 breast = system: MCF7 breast
MALME-3M melanoma = system: MALME-3M melanoma
SNB-19 CNS = system: SNB-19 CNS
SF-539 CNS = system: SF-539 CNS
HCC-2998 colon = system: HCC-2998 colon
SK-MEL-2 melanoma = system: SK-MEL-2 melanoma
RPMI-8226 leukemia = system: RPMI-8226 leukemia
SR leukemia = system: SR leukemia
HOP-62 NSCLC = system: HOP-62 NSCLC
CAKI-1 renal = system: CAKI-1 renal

COc1ccc(/C=C/C(=O)c2ccc(N3CCN(C)CC3)cc2)c(C(F)(F)F)c1
TGI (EKVX NSCLC): 25.4 µM | GI50 (TK-10 renal): 17.7 µM | TGI (TK-10 renal): 32.8 µM | GI50 (U251 CNS): 11.7 µM | TGI (U251 CNS): 34.4 µM | GI50 (OVCAR-5 ovarian): 16.2 µM | TGI (OVCAR-5 ovarian): 29.7 µM | GI50 (NCI-H23 lung): 11.2 µM | TGI (NCI-H23 lung): 23.2 µM | GI50 (NCI-H460 lung): 14 µM | TGI (NCI-H460 lung): 27.9 µM | GI50 (M14 melanoma): 14.4 µM | TGI (M14 melanoma): 34.5 µM | GI50 (MOLT-4 leukemia): 9.11 µM | TGI (MOLT-4 leukemia): 32.8 µM | GI50 (CCRF-CEM leukemia): 7.61 µM | TGI (CCRF-CEM leukemia): 53.1 µM | GI50 (NCI/ADR-RES ovarian): 13.2 µM | TGI (NCI/ADR-RES ovarian): 26.4 µM | GI50 (UACC-257 melanoma): 15.3 µM | TGI (UACC-257 melanoma): 30.8 µM | GI50 (K-562 leukemia): 2.96 µM | TGI (K-562 leukemia): 22.1 µM | GI50 (UO-31 renal): 12.3 µM | TGI (UO-31 renal): 24.7 µM | GI50 (COLO 205 colon): 15.6 µM | TGI (COLO 205 colon): 35.5 µM | GI50 (SK-MEL-28 melanoma): 14.7 µM | TGI (SK-MEL-28 melanoma): 27.9 µM | GI50 (OVCAR-8 ovarian): 20.8 µM | TGI (OVCAR-8 ovarian): 49.3 µM | GI50 (SK-MEL-5 melanoma): 7.97 µM | TGI (SK-MEL-5 melanoma): 20.6 µM | GI50 (HCT-116 colon): 5.61 µM | TGI (HCT-116 colon): 39 µM | GI50 (SF-268 CNS): 18.9 µM | TGI (SF-268 CNS): 41 µM | GI50 (786-0 renal): 12.5 µM | TGI (786-0 renal): 37.7 µM | GI50 (MCF7 breast): 4.6 µM | TGI (MCF7 breast): 19.5 µM | GI50 (MALME-3M melanoma): 12.9 µM | TGI (MALME-3M melanoma): 25.6 µM | GI50 (SNB-19 CNS): 14.8 µM | TGI (SNB-19 CNS): 27.9 µM | GI50 (SF-539 CNS): 14.2 µM | TGI (SF-539 CNS): 27.2 µM | GI50 (HCC-2998 colon): 12 µM | TGI (HCC-2998 colon): 24.3 µM | GI50 (SK-MEL-2 melanoma): 17.5 µM | TGI (SK-MEL-2 melanoma): 32.7 µM | GI50 (RPMI-8226 leukemia): 3.4 µM | TGI (RPMI-8226 leukemia): 47.7 µM | GI50 (SR leukemia): 6.74 µM | TGI (SR leukemia): > 100 µM | GI50 (HOP-62 NSCLC): 19.3 µM | TGI (HOP-62 NSCLC): 37 µM | GI50 (CAKI-1 renal): 14.2 µM | TGI (CAKI-1 renal): 27.5 µM
